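1) Cells in 96-well plates. 2) Compound, 48 h, 5 concentrations. 3) Linear interpolation between surrounding doses. 4) Unreached endpoint = highest concentration. Abbreviation: GI50, concentration required for 50% inhibition of growth.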 The source made the active and inactive calls. No stated cut-off is given here; in the data, active = GI50 up to about 1.1 µM and inactive = higher.
Key:
Experiment in all cases: DTP human tumour cell line panel, 48 h
786-0 = system: 786-0
A498 = system: A498
A549 = system: A549
ACHN = system: ACHN
CAKI-1 = system: CAKI-1
CCRF-CEM = system: CCRF-CEM
COLO 205 = system: COLO 205
DU-145 = system: DU-145
EKVX = system: EKVX
HCC 2998 = system: HCC 2998
HCT-116 = system: HCT-116
HCT-15 = system: HCT-15
HL-60 = system: HL-60
HOP-92 = system: HOP-92
Hs-578T = system: Hs-578T
IGROV-1 = system: IGROV-1
K562 = system: K562
KM12 = system: KM12
LOX IMVI = system: LOX IMVI
M14 = system: M14
MCF7 = system: MCF7
MDA-MB-231 = system: MDA-MB-231
MDA-MB-435 = system: MDA-MB-435
MDA-N = system: MDA-N
MOLT-4 = system: MOLT-4
Malme-3M = system: Malme-3M
NCI-H23 = system: NCI-H23
NCI-H460 = system: NCI-H460
NCI-H522 = system: NCI-H522
NCI/ADR-RES = system: NCI/ADR-RES
OVCAR-3 = system: OVCAR-3
OVCAR-4 = system: OVCAR-4
OVCAR-5 = system: OVCAR-5
OVCAR-8 = system: OVCAR-8
RPMI-8226 = system: RPMI-8226
SF-268 = system: SF-268
SF-295 = system: SF-295
SF-539 = system: SF-539
SK-MEL-28 = system: SK-MEL-28
SK-MEL-2 = system: SK-MEL-2
SK-OV-3 = system: SK-OV-3
SN12C = system: SN12C
SNB-19 = system: SNB-19
SNB-75 = system: SNB-75
SR = system: SR
SW-620 = system: SW-620
T47D = system: T47D
TK-10 = system: TK-10
U-251 = system: U-251
UACC-257 = system: UACC-257
UACC-62 = system: UACC-62
UO-31 = system: UO-31
HOP-62 = system: HOP-62
HT-29 = system: HT-29
NCI-H226 = system: NCI-H226
PC-3 = system: PC-3
RXF 393 = system: RXF 393
SK-MEL-5 = system: SK-MEL-5

With `COC(=O)CCCC(=O)NC1=C(Nc2ccccc2)C(=O)c2ccccc2C1=O` the GI50 (786-0) was 17.9 µM (inactive), the GI50 (A498) was 16.9 µM (inactive) and the GI50 (A549) was 19.5 µM (inactive). The GI50 (ACHN) was 19.3 µM (inactive), the GI50 (CAKI-1) was 20.1 µM (inactive) and the GI50 (CCRF-CEM) was 22.8 µM (inactive). The GI50 (COLO 205) was 16.3 µM (inactive), the GI50 (DU-145) was 15.2 µM (inactive) and the GI50 (EKVX) was 24.4 µM (inactive). The GI50 (HCC 2998) was 14.7 µM (inactive), the GI50 (HCT-116) was 16.6 µM (inactive) and the GI50 (HCT-15) was 15.1 µM. For the same molecule, the GI50 (HL-60) was 20.5 µM (inactive), the GI50 (HOP-92) was 21.8 µM (inactive) and the GI50 (Hs-578T) was 28.7 µM (inactive). The GI50 (IGROV-1) was 16 µM (inactive), the GI50 (K562) was 19.2 µM (inactive) and the GI50 (KM12) was 5.24 µM (inactive). The GI50 (LOX IMVI) was 17.4 µM (inactive), the GI50 (M14) was 16.1 µM (inactive) and the GI50 (MCF7) was 15.4 µM (inactive). For the same molecule, the GI50 (MDA-MB-231) was 19.1 µM (inactive), the GI50 (MDA-MB-435) was 5.51 µM (inactive) and the GI50 (MDA-N) was 3.89 µM (inactive). The GI50 (MOLT-4) was 16.6 µM (inactive), the GI50 (Malme-3M) was 3.56 µM (inactive) and the GI50 (NCI-H23) was 10.6 µM (inactive). The GI50 (NCI-H460) was 16.6 µM (inactive), the GI50 (NCI-H522) was 16.9 µM (inactive) and the GI50 (NCI/ADR-RES) was 18.2 µM (inactive). The GI50 (OVCAR-3) was 12.6 µM (inactive), the GI50 (OVCAR-4) was 19.3 µM (inactive) and the GI50 (OVCAR-5) was 16.8 µM (inactive). For the same molecule, the GI50 (OVCAR-8) was 31.9 µM (inactive), the GI50 (RPMI-8226) was 17.6 µM (inactive) and the GI50 (SF-268) was 30.7 µM (inactive). For the same molecule, the GI50 (SF-295) was 17.5 µM (inactive), the GI50 (SF-539) was 18.6 µM (inactive) and the GI50 (SK-MEL-28) was 16.7 µM (inactive). For the same molecule, the GI50 (SK-MEL-2) was 18.1 µM (inactive), the GI50 (SK-OV-3) was 22.5 µM (inactive) and the GI50 (SN12C) was 18 µM (inactive). The GI50 (SNB-19) was 18.2 µM (inactive), the GI50 (SNB-75) was 18.4 µM (inactive) and the GI50 (SR) was 30.2 µM (inactive). The GI50 (SW-620) was 25.2 µM (inactive), the GI50 (T47D) was 24.3 µM (inactive) and the GI50 (TK-10) was 26.8 µM (inactive). For the same molecule, the GI50 (U-251) was 14.4 µM (inactive), the GI50 (UACC-257) was 13.3 µM (inactive) and the GI50 (UACC-62) was 3.27 µM (inactive). For the same molecule, the GI50 (UO-31) was 21.2 µM (inactive).

With `CC(=O)OCc1cccc(O)c1C(=O)CCC=C(C)C` the GI50 (786-0) was > 100 µM (inactive), the GI50 (A498) was > 100 µM (inactive) and the GI50 (A549) was > 100 µM (inactive). For the same molecule, the GI50 (ACHN) was > 100 µM (inactive), the GI50 (CAKI-1) was > 100 µM (inactive) and the GI50 (CCRF-CEM) was 74.6 µM (inactive). The GI50 (COLO 205) was > 100 µM (inactive), the GI50 (DU-145) was > 100 µM (inactive) and the GI50 (EKVX) was > 100 µM (inactive). For the same molecule, the GI50 (HCC 2998) was > 100 µM (inactive), the GI50 (HCT-116) was > 100 µM (inactive) and the GI50 (HCT-15) was greater than 100 µM. For the same molecule, the GI50 (HL-60) was 34.7 µM (inactive), the GI50 (HOP-62) was > 100 µM (inactive) and the GI50 (HOP-92) was > 100 µM (inactive). The GI50 (HT-29) was > 100 µM (inactive), the GI50 (Hs-578T) was > 100 µM (inactive) and the GI50 (IGROV-1) was > 100 µM (inactive). The GI50 (K562) was > 100 µM (inactive), the GI50 (KM12) was > 100 µM (inactive) and the GI50 (LOX IMVI) was 46.9 µM (inactive). The GI50 (M14) was > 100 µM (inactive), the GI50 (MCF7) was > 100 µM (inactive) and the GI50 (MDA-MB-435) was > 100 µM (inactive). For the same molecule, the GI50 (MDA-N) was > 100 µM (inactive), the GI50 (MOLT-4) was > 100 µM (inactive) and the GI50 (Malme-3M) was > 100 µM (inactive). For the same molecule, the GI50 (NCI-H226) was > 100 µM (inactive), the GI50 (NCI-H23) was > 100 µM (inactive) and the GI50 (NCI-H460) was > 100 µM (inactive). For the same molecule, the GI50 (NCI-H522) was 27.1 µM (inactive), the GI50 (NCI/ADR-RES) was > 100 µM (inactive) and the GI50 (OVCAR-3) was > 100 µM (inactive). The GI50 (OVCAR-4) was > 100 µM (inactive), the GI50 (OVCAR-5) was 29.3 µM (inactive) and the GI50 (PC-3) was > 100 µM (inactive). The GI50 (RPMI-8226) was > 100 µM (inactive), the GI50 (RXF 393) was > 100 µM (inactive) and the GI50 (SF-268) was > 100 µM (inactive). For the same molecule, the GI50 (SF-295) was 32.7 µM (inactive), the GI50 (SF-539) was > 100 µM (inactive) and the GI50 (SK-MEL-28) was > 100 µM (inactive). For the same molecule, the GI50 (SK-MEL-2) was > 100 µM (inactive), the GI50 (SK-MEL-5) was > 100 µM (inactive) and the GI50 (SK-OV-3) was > 100 µM (inactive). For the same molecule, the GI50 (SN12C) was > 100 µM (inactive), the GI50 (SNB-19) was > 100 µM (inactive) and the GI50 (SR) was > 100 µM (inactive). For the same molecule, the GI50 (SW-620) was > 100 µM (inactive), the GI50 (T47D) was > 100 µM (inactive) and the GI50 (TK-10) was > 100 µM (inactive). For the same molecule, the GI50 (U-251) was > 100 µM (inactive), the GI50 (UACC-257) was > 100 µM (inactive) and the GI50 (UACC-62) was > 100 µM (inactive). For the same molecule, the GI50 (UO-31) was > 100 µM (inactive).

In the case of `COc1ccc([C@@H]2ON(C)[C@H]3CN(C)C(=O)[C@@H]23)cc1`, the GI50 (A549) is reported as > 100 µM (inactive), the GI50 (ACHN) is reported as > 100 µM (inactive) and the GI50 (CAKI-1) is reported as > 100 µM (inactive). For the same molecule, the GI50 (CCRF-CEM) was > 100 µM (inactive), the GI50 (COLO 205) was > 100 µM (inactive) and the GI50 (DU-145) was > 100 µM (inactive). The GI50 (HCC 2998) was > 100 µM (inactive), the GI50 (HCT-116) was > 100 µM (inactive) and the GI50 (HCT-15) was greater than 100 µM. For the same molecule, the GI50 (HL-60) was > 100 µM (inactive), the GI50 (HOP-62) was > 100 µM (inactive) and the GI50 (HOP-92) was > 100 µM (inactive). For the same molecule, the GI50 (HT-29) was > 100 µM (inactive), the GI50 (Hs-578T) was > 100 µM (inactive) and the GI50 (IGROV-1) was > 100 µM (inactive). For the same molecule, the GI50 (K562) was > 100 µM (inactive), the GI50 (LOX IMVI) was > 100 µM (inactive) and the GI50 (M14) was > 100 µM (inactive). The GI50 (MCF7) was > 100 µM (inactive), the GI50 (MDA-MB-231) was > 100 µM (inactive) and the GI50 (MDA-N) was > 100 µM (inactive). The GI50 (MOLT-4) was > 100 µM (inactive), the GI50 (NCI-H226) was > 100 µM (inactive) and the GI50 (NCI-H23) was > 100 µM (inactive). The GI50 (NCI-H460) was > 100 µM (inactive), the GI50 (NCI-H522) was > 100 µM (inactive) and the GI50 (NCI/ADR-RES) was > 100 µM (inactive). For the same molecule, the GI50 (OVCAR-3) was > 100 µM (inactive), the GI50 (OVCAR-4) was > 100 µM (inactive) and the GI50 (OVCAR-5) was > 100 µM (inactive). The GI50 (OVCAR-8) was > 100 µM (inactive), the GI50 (PC-3) was > 100 µM (inactive) and the GI50 (RPMI-8226) was > 100 µM (inactive). For the same molecule, the GI50 (SF-295) was > 100 µM (inactive), the GI50 (SK-MEL-28) was > 100 µM (inactive) and the GI50 (SK-MEL-2) was > 100 µM (inactive). The GI50 (SK-MEL-5) was > 100 µM (inactive), the GI50 (SK-OV-3) was > 100 µM (inactive) and the GI50 (SN12C) was > 100 µM (inactive). The GI50 (SNB-19) was > 100 µM (inactive), the GI50 (SNB-75) was 10.1 µM (inactive) and the GI50 (SR) was > 100 µM (inactive). The GI50 (SW-620) was > 100 µM (inactive), the GI50 (T47D) was > 100 µM (inactive) and the GI50 (TK-10) was > 100 µM (inactive). The GI50 (U-251) was > 100 µM (inactive), the GI50 (UACC-257) was > 100 µM (inactive) and the GI50 (UO-31) was > 100 µM (inactive).

— ChEMBL document CHEMBL1201862, “PubChem BioAssay data set” (2004)
